Measurements from patent US20230203043A1, “NOVEL IMIDAZOPYRAZINE DERIVATIVES” (Hoffmann-La Roche Inc., priority 2020, published 2023).
Where a name gives a salt, the structure may show the parent alone. Read-outs that look alike come from different tables or passages of the source.

Tested on: Acinetobacter baumannii ATCC17961
Assay: Antimicrobial susceptibility testing: 90% growth inhibitory concentration (IC90) determination in Iso-Sensitest broth, OD600 growth
Type: cell-based
How it was run: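 Growth monitored at 600 nm every 20 min for 16 h at 35±2 °C, inoculum ~5×10^(5) CFU/ml in Iso-Sensitest medium. Compounds in 10-point twofold series, e.g. 50 to 0.097 μM final; 90% inhibitory concentration taken from log-phase growth.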

[1] = Acinetobacter baumannii, ATCC17961, 16 h, read-out: A. baumannii ATCC 17961 IC90 (uM), strain ATCC 17961, OD600 growth over 16 h
[2] = Acinetobacter baumannii, ATCC17961, 16 h, strain ATCC 17961, OD600 growth over 16 h, read-out: A. baumannii ATCC 17961 IC90
[3] = strain ATCC 17961, OD600 growth over 16 h, read-out: A. baumannii ATCC 17961 IC90

SMILES	IC90 [2]	IC90 [1]	further results
CCc1cc(Nc2nccn3c(-c4cn(CC#N)nc4C(F)(F)F)cnc23)ccc1C(=O)NCCCNC(=O)[C@@H](C)N [Example 626, (R)-N-(3-(2-aminopropanamido)propyl)-4-((3-(1-(cyanomethyl)-3-(trifluoromethyl)-1H-pyrazol-4-yl)imidazo[1,2-a]pyrazin-8-yl)amino)-2-ethylbenzamide formate]	–	0.233 µM	–
N[C@H]1CCN(C(=O)N2CCN(C(=O)c3ccc(Nc4nccn5c(-c6c[nH]nc6C(F)(F)F)cnc45)cc3Cl)CC2)C1 [Example 328, [4-[(3S)-3-aminopyrrolidine-1-carbonyl]piperazin-1-yl]-[2-chloro-4-[[3-[3-(trifluoromethyl)-1H-pyrazol-4-yl]imidazo[1,2-a]pyrazin-8-yl]amino]phenyl]methanone formate]	–	0.157 µM	–
Cc1cc(Nc2nccn3c(-c4c[nH]nc4C(F)(F)F)cnc23)ccc1C(=O)N1CCN(C(=O)NCCN)CC1 [Example 428, N-(2-aminoethyl)-4-[2-methyl-4-[[3-[3-(trifluoromethyl)-1H-pyrazol-4-yl]imidazo[1,2-a]pyrazin-8-yl]amino]benzoyl]piperazine-1-carboxamide formate]	–	0.465 µM	–
CCc1cc(Nc2nccn3c(-c4cn(CC#N)nc4C(F)(F)F)cnc23)ccc1C(=O)NCCNC(=O)CCCN [Example 540, N-(2-(4-aminobutanamido)ethyl)-4-((3-(1-(cyanomethyl)-3-(trifluoromethyl)-1H-pyrazol-4-yl)imidazo[1,2-a]pyrazin-8-yl)amino)-2-ethylbenzamide formate]	–	0.249 µM	–
NC1CCN(C(=O)N2CCN(C(=O)c3ccc(Nc4nccn5c(-c6c[nH]nc6C(F)(F)F)cnc45)cc3Cl)CC2)CC1 [Example 285, [4-(4-aminopiperidine-1-carbonyl)piperazin-1-yl]-[2-chloro-4-[[3-[3-(trifluoromethyl)-1H-pyrazol-4-yl]imidazo[1,2-a]pyrazin-8-yl]amino]phenyl] methanone formate]	–	0.185 µM	–
COCCNC(=O)c1ccc(Nc2nccn3c(-c4cn(CC#N)nc4C(F)(F)F)cnc23)cc1Cl [Example 239, 2-chloro-4-[[3-[1-(cyanomethyl)-3-(trifluoromethyl)pyrazol-4-yl]imidazo[1,2-a]pyrazin-8-yl]amino]-N-(2-methoxyethyl) benzamide]	–	–	IC90 [3]: 0.211 µM
C#CCn1cc(-c2cnc3c(Nc4ccc(C(=O)NCCCNCCCCNCCCN)c(CC)c4)nccn23)c(C(F)(F)F)n1 [Example 155, N-[3-[4-(3-aminopropylamino)butylamino]propyl]-2-ethyl-4-[[3-[1-prop-2-ynyl-3-(trifluoromethyl)pyrazol-4-yl]imidazo[1,2-a]pyrazin-8-yl]amino]benzamide trifluoroacetate]	–	0.585 µM	–
NCCOCCNC(=O)c1ccc(Nc2nccn3c(-c4cn(CC(F)F)nc4C(F)(F)F)cnc23)cc1Cl [Example 252, N-[2-(2-aminoethoxy)ethyl]-2-chloro-4-[[3-[1-(2,2-difluoroethyl)-3-(trifluoromethyl)pyrazol-4-yl]imidazo[1,2-a]pyrazin-8-yl]amino] benzamide]	–	–	IC90 [3]: 0.169 µM
Cc1cc(Nc2nccn3c(-c4cn(CC#N)nc4C(F)(F)F)cnc23)ccc1C(=O)N[C@H](C)C(=O)N[C@H]1CCNC1 [Example 738, 4-[[3-[1-(cyanomethyl)-3-(trifluoromethyl)pyrazol-4-yl]imidazo[1,2-a]pyrazin-8-yl]amino]-2-methyl-N-[(1R)-1-methyl-2-oxo-2-[[(3S)-pyrrolidin-3-yl]amino]ethyl]benzamide formate]	–	0.526 µM	–
C#CCNCCCNC(=O)c1c(C)cc(Nc2nccn3c(-c4cn(CC=C)nc4C(F)(F)F)cnc23)cc1F [Example 66, 2-fluoro-6-methyl-4-[[3-[1-prop-2-enyl-3-(trifluoromethyl)pyrazol-4-yl]imidazo[1,2-a]pyrazin-8-yl]amino]-N-[3-(prop-2-ynylamino)propyl] benzamide]	–	–	IC90 [3]: 0.379 µM
O=C(c1ccc(Nc2nccn3c(-c4c[nH]nc4C(F)(F)F)cnc23)cc1Cl)N1CCN(C(=O)[C@H]2CCNC[C@H]2O)CC1 [Example 451, [2-chloro-4-[[3-[3-(trifluoromethyl)-1H-pyrazol-4-yl]imidazo[1,2-a]pyrazin-8-yl]amino]phenyl]-[4-[(3S,4S)-3-hydroxypiperidine-4-carbonyl]piperazin-1-yl]methanone formate]	–	0.365 µM	–
Cc1cc(Nc2nccn3c(-c4c[nH]nc4C(F)(F)F)cnc23)ccc1C(=O)N1CCN(C(=O)NC2CNC2)CC1 [Example 408, N-(azetidin-3-yl)-4-[2-methyl-4-[[3-[3-(trifluoromethyl)-1H-pyrazol-4-yl]imidazo[1,2-a]pyrazin-8-yl]amino]benzoyl]piperazine-1-carboxamide formate]	–	0.481 µM	–
N#CCn1cc(-c2cnc3c(Nc4ccc(C(=O)N5CCN(CC(=O)N6CCNCC6)CC5)c(Cl)c4)nccn23)c(C(F)(F)F)n1 [Example 607, 2-(4-(8-((3-chloro-4-(4-(2-oxo-2-(piperazin-1-yl)ethyl)piperazine-1-carbonyl)phenyl)amino)imidazo[1,2-a]pyrazin-3-yl)-3-(trifluoromethyl)-1H-pyrazol-1-yl)acetonitrile formate]	–	0.878 µM	–

Now from value to molecule, other results behind:

IC90 [2]	SMILES	IC90 [1]	further results
0.517 µM	CCNC(=O)c1ccc(Nc2nccn3c(-c4c[nH]nc4C(F)(F)F)cnc23)cc1CC [Example 280, N,2-diethyl-4-[[3-[3-(trifluoromethyl)-1H-pyrazol-4-yl]imidazo[1,2-a]pyrazin-8-yl]amino]benzamide]	–	–
0.37 µM	N#CCn1cc(-c2cnc3c(Nc4ccc(C(=O)NCCOCCN)c(Cl)c4)nccn23)c(C(F)(F)F)n1 [Example 257, N-[2-(2-aminoethoxy)ethyl]-2-chloro-4-[[3-[1-(cyanomethyl)-3-(trifluoromethyl)pyrazol-4-yl]imidazo[1,2-a]pyrazin-8-yl]amino]benzamide]	–	–
0.678 µM	C#CCn1cc(-c2cnc3c(Nc4ccc(C(=O)N5CCN(C(=O)C6(O)CCNCC6)CC5)c(CC)c4)nccn23)c(C(F)F)n1 [Example 755, (4-(4-((3-(3-(difluoromethyl)-1-(prop-2-yn-1-yl)-1H-pyrazol-4-yl)imidazo[1,2-a]pyrazin-8-yl)amino)-2-ethylbenzoyl)piperazin-1-yl)(4-hydroxypiperidin-4-yl) methanone]	–	–
0.266 µM	N#CCn1cc(-c2cnc3c(Nc4ccc(C(=O)NCC(=O)N5CC[C@H](N)C5)c(Cl)c4)nccn23)c(C(F)(F)F)n1 [Example 656, N-[2-[(3S)-3-aminopyrrolidin-1-yl]-2-oxo-ethyl]-2-chloro-4-[[3-[1-(cyanomethyl)-3-(trifluoromethyl)pyrazol-4-yl]imidazo[1,2-a]pyrazin-8-yl]amino] benzamide formate]	–	–
0.722 µM	CCc1cc(Nc2nccn3c(-c4c[nH]nc4C(F)(F)F)cnc23)ccc1C(=O)N[C@H](C)CNC(=O)[C@@H]1CCCN1 [Example 762, (S)-N-((R)-2-(2-ethyl-4-((3-(3-(trifluoromethyl)-1H-pyrazol-4-yl)imidazo[1,2-a]pyrazin-8-yl)amino)benzamido)propyl) pyrrolidine-2-carboxamide]	–	–
0.241 µM	CCc1cc(Nc2nccn3c(-c4cn(CC#N)nc4C(F)(F)F)cnc23)ccc1C(=O)NCCOC[C@H](C)N [Example 152, N-[2-[(2S)-2-aminopropoxy]ethyl]-4-[[3-[1-(cyanomethyl)-3-(trifluoromethyl)pyrazol-4-yl]imidazo[1,2-a]pyrazin-8-yl]amino]-2-ethylbenzamide]	–	–
0.384 µM	N#CCn1cc(-c2cnc3c(Nc4ccc(C(=O)N5CC[C@H](O)C5)c(Cl)c4)nccn23)c(C(F)(F)F)n1 [Example 243, 2-[4-[8-[3-chloro-4-[(3S)-3-hydroxypyrrolidine-1-carbonyl]anilino]imidazo[1,2-a]pyrazin-3-yl]-3-(trifluoromethyl)pyrazol-1-yl]acetonitrile]	–	–
0.171 µM	CCc1cc(Nc2nccn3c(-c4cn(CC#N)nc4C(F)(F)F)cnc23)ccc1C(=O)NCCNC(=O)[C@H]1C[C@H](N)C1 [Example 487, N-(2-((1r,3r)-3-aminocyclobutane-1-carboxamido)ethyl)-4-((3-(1-(cyanomethyl)-3-(trifluoromethyl)-1H-pyrazol-4-yl)imidazo[1,2-a]pyrazin-8-yl)amino)-2-ethylbenzamide formate]	–	–
2.96 µM	N[C@@H]1CC[C@@H](NC(=O)c2ccc(Nc3nccn4c(-c5c[nH]nc5C(F)(F)F)cnc34)cc2Cl)C1 (racemic) [Example 407, 2-chloro-N-[rac-(1R,3R)-3-aminocyclopentyl]-4-[[3-[3-(trifluoromethyl)-1H-pyrazol-4-yl]imidazo[1,2-a]pyrazin-8-yl]amino]benzamide]	–	–
0.14 µM	NCC(=O)N1CCN(C(=O)c2ccc(Nc3nccn4c(-c5cn(CC6CC6)nc5C(F)(F)F)cnc34)cc2F)CC1 [Example 814, 2-amino-1-(4-(4-((3-(1-(cyclopropyl-methyl)-3-(trifluoromethyl)-1H-pyrazol-4-yl)imidazo[1,2-a]pyrazin-8-yl)amino)-2-fluorobenzoyl)piperazin-1-yl)ethan-1-one hydrochloride]	–	–
0.229 µM	O=C(c1ccc(Nc2nccn3c(-c4c[nH]nc4C(F)(F)F)cnc23)cc1Cl)N1CCN(C(=O)C2(O)CCCNC2)CC1 (stereo not shown) [Example 352, [2-chloro-4-[[3-[3-(trifluoromethyl)-1H-pyrazol-4-yl]imidazo[1,2-a]pyrazin-8-yl]amino]phenyl]-[4-(3-hydroxypiperidine-3-carbonyl)piperazin-1-yl]methanone]	–	–
1.6 µM	CCc1cc(Nc2nccn3c(-c4cn(CCF)nc4C(F)F)cnc23)ccc1C(=O)N1CCN(C(=O)CN)CC1 [Example 788, 2-amino-1-(4-(4-((3-(3-(difluoromethyl)-1-(2-fluoroethyl)-1H-pyrazol-4-yl)imidazo[1,2-a]pyrazin-8-yl)amino)-2-ethylbenzoyl)piperazin-1-yl)ethan-1-one]	–	–
